Source: PubChem BioAssay (NCI)
Where “and” joins values, the source holds several entries; their conditions need not be identical. Equal values may be shown once.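 Where inhibition never reached the appropriate level, the endpoint shown equals the highest concentration tested. Otherwise, values were interpolated linearly from a five-concentration, 48-hour dose response in 96-well plates. Here, GI50 denotes the concentration required for 50% inhibition of growth. TGI: total growth inhibition.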

Columns and labels:
Experiment in all cases: growth of human tumour cells (NCI), 48 h
786-0 renal = test system: 786-0 renal
A498 renal = test system: A498 renal
A549 NSCLC = test system: A549 NSCLC
ACHN renal = test system: ACHN renal
BT-549 breast = test system: BT-549 breast
CAKI-1 renal = test system: CAKI-1 renal
CCRF-CEM leukemia = test system: CCRF-CEM leukemia
COLO 205 colon = test system: COLO 205 colon
DU-145 prostate = test system: DU-145 prostate
EKVX NSCLC = test system: EKVX NSCLC
HCC-2998 colon = test system: HCC-2998 colon
HCT-15 colon = test system: HCT-15 colon
HL-60(TB) leukemia = test system: HL-60(TB) leukemia
HOP-62 NSCLC = test system: HOP-62 NSCLC
HOP-92 NSCLC = test system: HOP-92 NSCLC
HS 578T breast = test system: HS 578T breast
HT29 colon = test system: HT29 colon
IGROV1 ovarian = test system: IGROV1 ovarian
K-562 leukemia = test system: K-562 leukemia
KM12 colon = test system: KM12 colon
LOX IMVI melanoma = test system: LOX IMVI melanoma
M14 melanoma = test system: M14 melanoma
MALME-3M melanoma = test system: MALME-3M melanoma
MCF7 breast = test system: MCF7 breast
MDA-MB-231 breast = test system: MDA-MB-231 breast
MDA-MB-435 = test system: MDA-MB-435
MDA-N = test system: MDA-N
MOLT-4 leukemia = test system: MOLT-4 leukemia
NCI-H226 lung = test system: NCI-H226 lung
NCI-H23 lung = test system: NCI-H23 lung
NCI-H460 lung = test system: NCI-H460 lung
NCI-H522 lung = test system: NCI-H522 lung
NCI/ADR-RES ovarian = test system: NCI/ADR-RES ovarian
OVCAR-3 ovarian = test system: OVCAR-3 ovarian
OVCAR-4 ovarian = test system: OVCAR-4 ovarian
OVCAR-5 ovarian = test system: OVCAR-5 ovarian
OVCAR-8 ovarian = test system: OVCAR-8 ovarian
PC-3 prostate = test system: PC-3 prostate
RPMI-8226 leukemia = test system: RPMI-8226 leukemia
RXF 393 renal = test system: RXF 393 renal
SF-268 CNS = test system: SF-268 CNS
SF-295 CNS = test system: SF-295 CNS
SF-539 CNS = test system: SF-539 CNS
SK-MEL-28 melanoma = test system: SK-MEL-28 melanoma
SK-MEL-5 melanoma = test system: SK-MEL-5 melanoma
SK-OV-3 ovarian = test system: SK-OV-3 ovarian
SN12C renal = test system: SN12C renal
SNB-19 CNS = test system: SNB-19 CNS
SR leukemia = test system: SR leukemia
SW-620 colon = test system: SW-620 colon
T-47D breast = test system: T-47D breast
TK-10 renal = test system: TK-10 renal
U251 CNS = test system: U251 CNS
UACC-257 melanoma = test system: UACC-257 melanoma
UACC-62 melanoma = test system: UACC-62 melanoma
UO-31 renal = test system: UO-31 renal
HCT-116 colon = test system: HCT-116 colon
SK-MEL-2 melanoma = test system: SK-MEL-2 melanoma
SNB-75 CNS = test system: SNB-75 CNS

## Cc1cccc(/C=N/NC(=S)N2CCCC2)n1
786-0 renal
  GI50: 2.45 µM
  TGI: 2.85 µM
A498 renal
  GI50: 7.22 µM
  TGI: 5.61 µM
A549 NSCLC
  GI50: 2.5 µM
  TGI: > 100 µM
ACHN renal
  GI50: 1.44 µM
BT-549 breast
  GI50: 3.02 µM
  TGI: > 100 µM
CAKI-1 renal
  GI50: 3.24 µM
  TGI: 1.16 µM
CCRF-CEM leukemia
  GI50: 0.0659 µM
  TGI: 0.85 µM
COLO 205 colon
  GI50: 0.193 µM
DU-145 prostate
  GI50: 0.98 µM
EKVX NSCLC
  GI50: 3.18 µM
HCC-2998 colon
  GI50: 0.102 µM
  TGI: 0.92 µM
HCT-15 colon
  GI50: 0.586 µM
  TGI: > 100 µM
HL-60(TB) leukemia
  GI50: 0.236 µM
  TGI: 0.872 µM
HOP-62 NSCLC
  GI50: 2.17 µM
  TGI: 0.942 µM
HOP-92 NSCLC
  GI50: 0.536 µM
HS 578T breast
  TGI: > 100 µM
HT29 colon
  GI50: 4.49 µM
  TGI: > 100 µM
IGROV1 ovarian
  GI50: 0.415 µM
  TGI: > 100 µM
K-562 leukemia
  GI50: 0.17 µM
  TGI: > 100 µM
KM12 colon
  GI50: 0.88 µM and 0.322 µM
  TGI: > 100 µM
LOX IMVI melanoma
  TGI: > 41.4 µM
M14 melanoma
  GI50: 0.392 µM
  TGI: 2.64 µM and 0.485 µM
MALME-3M melanoma
  GI50: 1 µM
  TGI: 5.18 µM and 0.783 µM
MCF7 breast
  GI50: 0.169 µM
MDA-MB-231 breast
  GI50: 1.14 µM
MDA-MB-435
  GI50: 1.11 µM
  TGI: > 100 µM
MDA-N
  GI50: 1.91 µM
  TGI: > 26.1 µM
MOLT-4 leukemia
  TGI: > 100 µM
NCI-H226 lung
  GI50: 0.266 µM
  TGI: 7.73 µM and 0.83 µM
NCI-H23 lung
  GI50: 0.401 µM
  TGI: 13.4 µM
NCI-H460 lung
  TGI: > 42 µM
NCI-H522 lung
  TGI: > 100 µM
NCI/ADR-RES ovarian
  GI50: 0.319 µM
  TGI: 6.93 µM and 4.89 µM
OVCAR-3 ovarian
  GI50: 0.28 µM
  TGI: 0.843 µM and 0.0848 µM
OVCAR-4 ovarian
  TGI: 6.95 µM
OVCAR-5 ovarian
  GI50: 2.41 µM
OVCAR-8 ovarian
  GI50: 0.624 µM
  TGI: > 100 µM
PC-3 prostate
  GI50: 0.581 µM
RPMI-8226 leukemia
  GI50: 0.426 µM and 0.322 µM
  TGI: > 100 µM
RXF 393 renal
  GI50: 2.09 µM
SF-268 CNS
  GI50: 2.29 µM
SF-295 CNS
  GI50: 1.08 µM
  TGI: 4.24 µM
SF-539 CNS
  GI50: 0.753 µM
SK-MEL-28 melanoma
  GI50: 1.42 µM
  TGI: > 100 µM
SK-MEL-5 melanoma
  TGI: 0.823 µM
SK-OV-3 ovarian
  TGI: > 100 µM
SN12C renal
  GI50: 0.719 µM
SNB-19 CNS
  GI50: 1.4 µM
  TGI: > 34.6 µM
SR leukemia
  GI50: 0.15 µM
  TGI: 0.876 µM
SW-620 colon
  GI50: 0.352 µM
  TGI: > 100 µM
T-47D breast
  GI50: 0.267 µM
  TGI: 7.68 µM
TK-10 renal
  GI50: 4.82 µM
  TGI: 1.35 µM
U251 CNS
  GI50: 0.821 µM
  TGI: > 100 µM
UACC-257 melanoma
  TGI: 9.51 µM and 12.1 µM
UACC-62 melanoma
  GI50: 0.587 µM
  TGI: 2.8 µM and 1 µM
UO-31 renal
  GI50: 0.748 µM
  TGI: 4.19 µM

## Cc1cccc(Nc2nn3c(=O)c4c5c(sc4nc3s2)CCCC5)c1
786-0 renal
  TGI: > 100 µM
A549 NSCLC
  TGI: > 100 µM
ACHN renal
  TGI: > 100 µM
BT-549 breast
  TGI: 68.7 µM
CAKI-1 renal
  TGI: > 100 µM
CCRF-CEM leukemia
  TGI: > 100 µM
COLO 205 colon
  TGI: > 100 µM
DU-145 prostate
  TGI: > 100 µM
HCT-116 colon
  TGI: > 100 µM
HCT-15 colon
  TGI: > 100 µM
HL-60(TB) leukemia
  TGI: > 100 µM
HOP-62 NSCLC
  TGI: > 100 µM
HOP-92 NSCLC
  TGI: > 100 µM
HS 578T breast
  TGI: > 100 µM
HT29 colon
  TGI: > 100 µM
IGROV1 ovarian
  TGI: > 100 µM
K-562 leukemia
  TGI: > 100 µM
KM12 colon
  TGI: > 100 µM
LOX IMVI melanoma
  TGI: 23.1 µM
M14 melanoma
  TGI: > 100 µM
MCF7 breast
  TGI: > 100 µM
MDA-MB-231 breast
  TGI: > 100 µM
MDA-MB-435
  TGI: > 100 µM
MDA-N
  TGI: > 100 µM
MOLT-4 leukemia
  TGI: > 100 µM
NCI-H226 lung
  TGI: > 100 µM
NCI-H23 lung
  TGI: 57.1 µM
NCI-H460 lung
  TGI: > 100 µM
NCI-H522 lung
  TGI: > 100 µM
NCI/ADR-RES ovarian
  TGI: > 100 µM
OVCAR-3 ovarian
  TGI: > 100 µM
OVCAR-4 ovarian
  TGI: > 100 µM
OVCAR-5 ovarian
  TGI: > 100 µM
OVCAR-8 ovarian
  TGI: > 100 µM
PC-3 prostate
  TGI: > 100 µM
RXF 393 renal
  TGI: 62.8 µM
SF-268 CNS
  TGI: > 100 µM
SF-295 CNS
  TGI: 14.4 µM
SF-539 CNS
  TGI: > 100 µM
SK-MEL-2 melanoma
  TGI: > 100 µM
SK-MEL-28 melanoma
  TGI: > 100 µM
SK-MEL-5 melanoma
  TGI: > 100 µM
SK-OV-3 ovarian
  TGI: > 100 µM
SN12C renal
  TGI: > 100 µM
SNB-19 CNS
  TGI: > 100 µM
SNB-75 CNS
  TGI: 78.4 µM
SR leukemia
  TGI: > 100 µM
SW-620 colon
  TGI: > 100 µM
T-47D breast
  TGI: 74.2 µM
TK-10 renal
  TGI: > 100 µM
U251 CNS
  TGI: > 100 µM
UACC-257 melanoma
  TGI: > 100 µM
UACC-62 melanoma
  TGI: 5.92 µM
UO-31 renal
  TGI: > 100 µM
